One test has as its system FGF-2. Nature of the test: Real-Time Quantitative PCR of mRNA gene expression in HT1080 cells. The test is classed as cell-based, human. To be noted: 24 h, 2.5 uM, mean value. The protocol:
(§1) To evaluate the effect of heparanase inhibitors on the tumor transcription of genes encoding for proangiogenic factors, such as FGF1/2, VEGF, MMP-9, HSPE-1, the relative mRNA levels were analyzed by quantitative Real-Time Quantitative PCR.
(§2) To perform the assay, HT1080 (human fibrosarcoma) cells were cultured in complete medium containing 10%FCS (fetal calf serum). Cells were plated in 24-well plates and treated at fixed concentration (i.e., highest non-toxic concentration) of test compounds. After 24 h, cells were detached, collected and total RNA extracted by RNeasy Mini Kit (QIAGEN). Following reverse transcription step, FGF1/2, VEGF, MMP-9, HSPE-1 mRNA levels, were quantified by qPCR using the advanced Universal SYBR Green Supermix (Bio Rad) and ABI PRISM 7900HT Thermal Cycler System (Perkin Elmer), according to the manufacturer's instructions. Appropriate no-RT and non-template controls were included in each 96-well PCR reaction, and dissociation analysis was performed at the end of each run to confirm the specificity of the reaction. Relative levels of RNA were calculated using the ddCt method. Standard curve and sample data were run in duplicate. In Table 4 a mean value is reported.

The test system of another test is VEGF. The test is described as above. In kind it is cell-based, human. To be noted: 24 h, 2.5 uM, mean value. The protocol:
as §1, §2

The subject of the next test is HPSE-1. Described as above. In kind it is cell-based, human. The following applies: 24 h, 2.5 uM, mean value. The protocol:
as §1, §2

Another test deals with FGF-1. Described as above. The following applies: 24 h, 2.5 uM, mean value. The test is classed as cell-based, human. On the procedure: as §1, §2
The subject of the next test is MMP-9. The description is as above. The following applies: 24 h, 2.5 uM, mean value. In kind it is cell-based, human. On the procedure: as §1, §2
The subject of test [1] is U87MG (human glioblastoma astrocytoma). Kind of test: Cell adhesion assay on matrigel coated wells. The test is classed as cell-based. The following applies: 2.5 µM, percent of adhesion with respect to the control (100%). The protocol:
(§3) Cell surface, non-integrin molecules such as heparan sulfate proteoglycans (HSPGs) may be involved in the regulation of early adhesive stages of cell-ECM interactions. A cell adhesion assay has been employed to determine if the newly designed heparanase inhibitors were able to interfere with adhesion properties of cancer cells.
(§4) HT1080 (human fibrosarcoma) and U87MG (human glioblastoma astrocytoma) cells were treated for 18-20 h with test compounds in complete medium supplemented with 10% FCS. Then cells were collected, washed in complete medium, and added to matrigel coated wells in triplicate, at previously identified optimal seeding density, and incubated at 37 °C in complete medium for times ranging from 15 minutes to 4h, according to the cell line. After incubation, the wells were washed three times with serum-free medium and the remaining firmly attached cells were stained with crystal-violet 0.1%. Optical density was measured at 560 nm by Victor 3 (Perkin-Elmer) plate analyzer. Each experiment was repeated three times.
(§5) Table 3. […] In Invasion assay, data were expressed as the percent invasion (range) with respect to cell migration through uncoated insert membrane. In Adhesion assay, data were expressed as the percent of adhesion with respect to the control (100%).

In test [2] the test system is HT1080 (human fibrosarcoma). Nature of the test: Cell adhesion assay on matrigel coated wells. To be noted: 2.5 µM, percent of adhesion with respect to the control (100%). In kind it is cell-based. The protocol:
as §3, §4, §5

For test [3], the system named is U87MG (human glioblastoma astrocytoma). Nature of the test: Matrigel cell invasion assay. The following applies: Homo sapiens, U-87 MG, read-out: Invasion Assay Inhibition U87MG. The test is classed as cell-based. The protocol: (§6) Heparanase inhibitors were then evaluated for their activity on the invasive potential of HT1080 (human fibrosarcoma), U87MG (human glioblastoma astrocytoma) and U2OS (human osteosarcoma) human cell lines, using the Matrigel cell invasion assay which allows to assess the cell invasion ability of malignant and normal cells.
(§7) Invasion assay was performed using BioCoat cell culture inserts (BioCoat 8.0µm PET Membrane 24 Well Permeable Supports, Corning). Filters were coated with 100 µl of 300 µg/ml Matrigel dissolved in coating buffer (0.01 M Tris pH 8.0, 0.7% NaCl) (Becton-Dickinson Sciences). DMEM (Dulbecco's Modified Eagle's Medium) containing 5% FBS was added to the lower chambers. Cells were pre-treated with heparanase inhibitors for 24 h, detached and added to the upper chambers in media containing the inhibitors. Cells were allowed to invade for 24 h at 37°C in a CO2 incubator and then unmigrated cells were removed from the upper chamber with a cotton swab. The invading cells were fixed, stained with 0.1% crystal violet for 10 min at room temperature, photographed and counted under inverted microscope.
(§8) Test compounds were analyzed at fixed concentration (2.5 µM) for several fields, in duplicates. Activity of test compounds was compared to the reference compound. Activity of most interesting compound was confirmed in a second cell invasion assay. Data were expressed as the percent invasion with respect to cell migration through uncoated insert membrane.
as §5

Test [4] concerns U2OS (human osteosarcoma). Kind of test: Matrigel cell invasion assay. In kind it is cell-based. To be noted: Homo sapiens, read-out: Invasion Assay Inhibition U2OS. On the procedure: as §6, §7, §8, §5
The test system of test [5] is HT1080 (human fibrosarcoma). Kind of test: Matrigel cell invasion assay. The following applies: HT-1080, read-out: Invasion Assay Inhibition HT1080. The test is classed as cell-based. The protocol:
as §6, §7, §8, §5

Some results are limits rather than exact numbers.

As to `Cn1cc(NC(=O)c2ccc(Oc3ccc(C(=O)Nc4cc(C(=O)Nc5cccc(CC(=O)N[C@@H](Cc6ccccc6)C(=O)O)c5)n(C)c4)cc3)cc2)cc1C(=O)Nc1cccc(CC(=O)N[C@@H](Cc2ccccc2)C(=O)O)c1` [Compound 36e, (2S,2'S)-2,2'-((2,2'-(((4,4'-((4,4'-Oxybis(benzoyl))bis(azanediyl))bis(1-methyl-1H-pyrrole-2,2'-carbonyl))bis(azanediyl))bis(3,1-phenylene))bis(acetyl))bis(azanediyl))bis(3-phenylpropanoic acid)], the “Gene Expression (% mRNA vs. control) FGF-2” value in the test with FGF-2 was ~ 64%. Besides, the “Gene Expression (% mRNA vs. control) VEGF” value in the test with VEGF is ~ 51%. Moreover, in the test with HPSE-1, the “Gene Expression (% mRNA vs. control) HPSE-1” value is recorded as ~ 88%. In addition, the “Gene Expression (% mRNA vs. control) FGF-1” value with FGF-1 is reported as ~ 62%. Also, in the test on MMP-9, the “Gene Expression (% mRNA vs. control) MMP-9” value is reported as ~ 50%. For the same molecule, the “Adhesion Assay (%) U87MG” value in test [1] is 73.0%. For the same molecule, the “Adhesion Assay (%) HT1080” value in [2] is 91.2%. In addition, the inhibition at 2.5 µM in test [3] is 50 to 90%; in test [4], less than 50%; in test [5], 50 to 90%.

Source of the values: patent EP3381898A1, “SYMMETRICAL TRIS-ARYL-AMIDE DERIVATIVES AND THEIR USE AS ANTI-HEPARANASE” (priority 2017, dated 2018).
